Tested on: PDE IV
Experiment: Inhibition of PDE IV activity (method of Bauer and Schwabe, adapted to microtiter plates)
Format: biochemical
Conditions: Hemmung der PDE IV-Aktivität
Procedure: Hierbei erfolgt im ersten Schritt die PDE-Reaktion. In einem zweiten Schritt wird das entstandene 5'-Nukleotid durch eine 5'-Nukleotidase des Schlangengiftes von Crotalus Atrox zum ungeladenen Nukleosid gespalten. Im dritten Schritt wird das Nukleosid auf lonenaustauschsäulen vom verbliebenen geladenen Substrat getrennt. Die Säulen werden mit 2 ml 30 mM Ammoniumformiat (pH 6,0) direkt in Minivials eluiert, in die noch 2 ml Szintillatorflüssigkeit zur Zählung gegeben wird.

SMILES	-log IC50
CCOc1cc2c(cc1OC)C(c1ccc(N(C)S(=O)(=O)c3ccc(C)cc3)cc1)=N[C@@H]1CCCC[C@H]21 (racemic) [Verbindung 36, (+/-)-cis-9-Ethoxy-8-methoxy-6-[(N-methyl-4-p-toluolsulfonamido)phenyl]-1,2,3,4,4a,10bhexahydrophenanthridin]	9.09
CCOc1cc2c(cc1OCC)[C@@H]1CCCC[C@@H]1N=C2c1ccc(O)cc1 (racemic) [Verbindung 37, (+/-)-cis-8,9-Diethoxy-6-(4-hydroxyphenyl)-1,2,3,4,4a,10b-hexahydrophenanthridin]	8.04
